For data set [1] the following is noted: Kattus et al. 1951; cited from earlier work.
Data set [2] has as its system dogs. Description: Oral minimum emetic dose in dogs. The class given is in vivo, dog. As to the method: 2. Oral Minimum Emetic Dose
The minimum dose of each compound which causes emesis after oral administration was estimated in a group of five adult mongrel dogs of either sex. Logarithmically increasing or decreasing (depending upon response) doses of each compound were administered orally via a flexible stomach tube. The compounds were dissolved in distilled water in concentrations to allow a constant volume dose of 5 ml/kg. […] Onset, frequency, and duration of emetic episodes as well as signs of CNS stimulation were also recorded.

The test system of data set [3] is dogs. The note with it: dog, in vivo, iv.
Protocol: Acute Intravenous Evaluation in Dogs
Compounds were tested in two dogs each. Animals were initially hydrated with 30 ml/kg of water, orally; then anesthetized with pentobarbital sodium, 30-35 mg/kg i.v. One femoral vein was cannulated and a constant intravenous infusion of warm saline (3 ml/min.) was begun and continued throughout the experiment. The contralateral femoral vein was also cannulated for intravenous drug administration. Urine was directly collected from bilateral ureter cannulae. After a 20-minute control collection period, the first dose of the appropriate compound was injected and urine was collected at 20-minute intervals for a period of one hour. This procedure was repeated for two additional doses of the same compound. Urine volume, pH, and sodium and potassium levels were determined for each 20-minute collection period and sums were obtained for the one-hour period after each dose. Test results, reported as successive changes in each parameter, were compared accordingly.
The next data set relates to human bronchodilator. The experiment in a line: Estimated human bronchodilator dose equivalent to recommended theophylline dose. The note with it: based on recommended theophylline dose and relative bronchodilator activities. The text has this:
Experimental results are summarized in Table I wherein pharmacologic and toxicologic activities relative to that of theophylline are expressed on a molar basis.
^a - Dose: Based on the recommended dose for theophylline and the
relative activities in the bronchodilator experiments.

The conditions of data set [4]: prior art statement; cited from earlier work.
The subject of data set [5] is dogs. The note with it: dog, in vivo, iv. The source holds these as a separate data set.
Protocol: Intravenous Cardiovascular Evaluation in Dogs
Thirteen adult mongrel dogs of either sex ranging in weight from 16.7 to 25.0 kg were employed to compare the overall intravenous cardiovascular activity of the five experimental compounds.
Dogs were anesthetized with pentobarbital sodium, 30-35 mg/kg i.v., fitted with a cuffed endotracheal tube, and ventilated with a Harvard Animal Respiratory Pump. A femoral vein was cannulated for i.v. drug administration. The left common carotid artery was cannulated and the cannula tip advanced into the aortic arch. A median sternotomy was performed and appropriately sized electromagnetic blood flow transducers (Biotronex) were placed around the ascending aorta and left anterior descending coronary artery. These procedures allowed continuous recording or calculation of the following parameters:
a. Mean Arterial Pressure (MAP); from the aortic cannula.
b. Heart Rate (HR); electronically from pulsatile ascending aortic flow.
c. Cardiac Output (CO); mean ascending aortic flow.
d. Myocardial Contractile Force (MCF); dQ/dt, the first derivative of maximum aortic flow rate, also known as peak aortic flow acceleration.
e. Stroke Volume (SV); quotient of CO/HR.
f. Cardiac Work (CW); product of CO X MAP.
g. Total Peripheral Resistance (TPR); quotient of MAP/CO.
h. Coronary Flow (CF); mean left anterior descending (LAD) coronary flow.
i. Coronary Resistance (CR); quotient of MAP/CF.
Logarithmically increasing doses of the appropriate compound were injected at 20-minute intervals. Responses were measured at 1, 2, 5, 10, 15 and 20 minutes after each dose and the average response during that period was calculated. Theophylline (aminophylline), dyphylline (II), and Compound V were employed in both 20 and 80 mg/ml concentrations in distilled water. Compounds III and IV were used in 10 and 30 mg/ml concentrations respectively.
Data set [6] can be described thus: Summary of relative molar activities (means and therapeutic efficacy). The note with it: mean bronchodilator (therapeutic) activity divided by mean acute toxic and side effect activity.
Description: ^g - Mean bronchodilator (therapeutic) activity divided by mean acute
A short description of data set [7]: Intravenous emetic study in dogs (ED50). Type of data set: in vivo, dog. The note with it: dog, in vivo, iv; read-out: ED50 (median emetic dose), I.V. Dogs. As to the method:
(§1) Twelve adult mongrel dogs of either sex were employed to determine the median emetic dose (ED50) of all five experimental compounds after intravenous administration. […] Onset, frequency, and duration of emetic episodes were also recorded. The dogs were not fasted, were allowed at least 2 days rest between doses, and no animal received the same compound twice in succession. […] ED50 values were calculated according to the method of Litchfield and Wilcoxon (1949).

In data set [8] the test system is dogs. Description: Intravenous emetic study in dogs (ED50). Type of data set: in vivo, dog. The note with it: estimated at HBD. As to the method: as §1

In brackets after ≈: the same amount, converted by molar mass.

Regarding `CCCCn1c(=O)c2[nH]cnc2n(CCCC)c1=O` [1,3-dibutyl xanthine], the “Diuretic and emetic properties in words (prior art)” value (“Diuretic and emetic properties” below) in data set [1] was “extremely potent”.
For the compound `CCn1c(=O)c2[nH]cnc2n(CC)c1=O` [1,3-diethyl, 1,3-diethyl xanthine], the “Diuretic and emetic properties” value in data set [1] was “extremely potent”.
With `CCCn1c(=O)c2[nH]cnc2n(CCC)c1=O` [1,3-dipropyl, 1,3-dipropyl xanthine], the “Diuretic and emetic properties” value in [1] is reported as “extremely potent”.
Take `Cn1c(=O)c2[nH]cnc2n(C)c1=O` [Compound I, 1,3-dimethylxanthine]: in the data set on dogs [2], the “MED (minimum emetic dose), P.O. Dogs” value worked out at 128 mg/kg. Moreover, the “Emetic effect, P.O. Dogs” value in the data set with dogs [2] (estimated at HBD) was “None”. In addition, in the data set with dogs [3], the “Diuretic Activity, I.V. Dogs” value is recorded as “Mild”. In addition, in the data set with human bronchodilator, the “Estimated Human Bronchodilator Dose (HBD), per 70 kg” value was 200 mg/70 kg and the “Estimated Human Bronchodilator Dose (HBD), per kg” value was 2.9 mg/kg. Also, the solubility (usually the concentration that dissolves in the medium under given conditions) in “Solubility” (water) is 8000 µg/mL (≈ 44.4 mM). The Solubility in words result in the data set “Solubility” (water solubility, qualitative) was “poor solubility”. In data set [4], the “Water solubility in words (prior art)” value is listed as “lack of water solubility”. For the same compound, in the data set on dogs [5], the “CF (coronary flow) change” value is “+21 %Δ”, the “CO (cardiac output) change” value is recorded as “+7 %Δ”, the “CW (cardiac work) change” value is listed as -5 %Δ and the “Cardiovascular effects (Mean)” value is given as 12. In addition, in the data set with dogs [5], the “HR (heart rate) change” value is given as “+11 ΔBPM”, the “MAP (mean arterial pressure) change” value is listed as -12 ΔmmHg, the “MCF (myocardial contractile force) change” value is listed as “+17 %Δ” and the “TPR (total peripheral resistance) change” value is -12 %Δ. In data set [6], the “Therapeutic Efficacy” value was 1.00. In addition, in [7], the ED50 (usually the dose at which the effect has come halfway, by size or by number of responders) turned out to be 58 mg/kg. In addition, the “Emetic effect, I.V. Dogs” value with dogs [8] was “None”.

The record behind these values is patent US4031218A, “7-(2,3-Dihydroxypropyl-1,3-di-n-propylxanthine and a pharmaceutical composition containing same useful as a bronchial muscle relaxant” (Mallinckrodt, Inc., priority 1976, dated 1977).
